In patent US12522607B2, “Substituted pyrazolo[3,4-d]pyrimidines as wee-1 inhibitors” (WIGEN BIOMEDICINE TECHNOLOGY (SHANGHAI) CO., LTD., priority 2020, dated 2026):

Columns and labels:
Wee-1 kinase = target: T1, Wee-1 kinase (Homo sapiens, UniProt P30291); experiment: Inhibitory activity against Wee-1 kinase (Lanthra Screen Wee-1 kinase kit, Tracer 178); format: binding; conditions: Wee-1 kinase 5 nM, Tracer 178 50 nM, 1 h room temperature
T1 construct: purchased Invitrogen
Summary of the method: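 LanthaScreen binding format: Wee-1 kinase (5 nM final) with Eu-anti-GST antibody (2 nM final) and kinase Tracer 178 (50 nM final), compounds serially diluted in DMSO. 1 h at room temperature before reading. IC50 relative to DMSO control.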

HT29 cells = experiment: Antiproliferative activity against HT29 cells (Cell Titer-Lumi, ATP content); format: cell-based; conditions: Homo sapiens, HT-29, 72 after compound addition, read-out: HT-29 cells Anti-proliferative activity (IC50 for the inhibition against HT-29 cell growth)
Summary of the method: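 3000 cells per well, allowed to adhere overnight, then exposed to a gradient dilution of compound for 72 (units as printed). Cellular ATP read by luminescence (Cell Titer-Lumi) as a growth measure; IC50 for growth inhibition calculated.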

T1 sequence (P30291 whole entry): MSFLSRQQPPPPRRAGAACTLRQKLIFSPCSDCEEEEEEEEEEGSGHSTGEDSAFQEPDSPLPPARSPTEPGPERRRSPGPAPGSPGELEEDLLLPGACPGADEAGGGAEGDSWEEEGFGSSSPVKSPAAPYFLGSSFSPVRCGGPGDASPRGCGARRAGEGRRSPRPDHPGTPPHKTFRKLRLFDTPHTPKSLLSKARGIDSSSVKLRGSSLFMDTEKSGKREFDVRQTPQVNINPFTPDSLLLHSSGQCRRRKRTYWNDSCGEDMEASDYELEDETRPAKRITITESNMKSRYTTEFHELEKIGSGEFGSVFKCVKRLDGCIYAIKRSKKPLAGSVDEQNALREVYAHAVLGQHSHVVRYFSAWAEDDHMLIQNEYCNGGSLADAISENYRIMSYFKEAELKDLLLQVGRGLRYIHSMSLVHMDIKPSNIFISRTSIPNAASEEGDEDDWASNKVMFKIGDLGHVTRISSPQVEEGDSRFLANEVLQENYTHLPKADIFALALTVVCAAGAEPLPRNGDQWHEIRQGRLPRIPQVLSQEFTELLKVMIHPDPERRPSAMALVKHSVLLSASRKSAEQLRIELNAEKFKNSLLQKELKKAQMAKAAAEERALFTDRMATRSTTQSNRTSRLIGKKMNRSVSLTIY

Structure (SMILES) | IC50 (Wee-1 kinase) | IC50 (HT29 cells)
C=CCn1c(=O)c2cnc(Nc3ccc(C4CCN(C)CC4)c(C)c3)nc2n1-c1ccc(=O)n(C(C)C)n1 [Compound 193] | ≤ 30 nM | ≤ 1000 nM
C=CCn1c(=O)c2cnc(Nc3ccc(C4CCNCC4)c(OC)c3)nc2n1-c1ccc(=O)n(C(C)C)n1 [Compound 194] | ≤ 30 nM | ≤ 1000 nM
C=CCn1c(=O)c2cnc(Nc3ccc(C4CCN(C)CC4)c(OC)c3)nc2n1-c1ccc(=O)n(C(C)C)n1 [Compound 195] | ≤ 30 nM | ≤ 1000 nM
C=CCn1c(=O)c2cnc(Nc3ccc(C4CCNCC4)c(C(F)(F)F)c3)nc2n1-c1ccc(=O)n(C(C)C)n1 [Compound 196] | ≤ 30 nM | ≤ 1000 nM
C=CCn1c(=O)c2cnc(Nc3ccc(C4CCN(C)CC4)c(C(F)(F)F)c3)nc2n1-c1ccc(=O)n(C(C)C)n1 [Compound 197] | ≤ 30 nM | ≤ 1000 nM
C=CCn1c(=O)c2cnc(Nc3ccc(C4CCNCC4)c(CC(F)(F)F)c3)nc2n1-c1ccc(=O)n(C(C)C)n1 [Compound 198] | ≤ 30 nM | ≤ 1000 nM
C=CCn1c(=O)c2cnc(Nc3ccc(C4CCN(C)CC4)c(CC(F)(F)F)c3)nc2n1-c1ccc(=O)n(C(C)C)n1 [Compound 199] | ≤ 30 nM | ≤ 1000 nM
C=CCn1c(=O)c2cnc(Nc3ccc(C4(C)CCNCC4)cc3)nc2n1-c1ccc(=O)n(C(C)C)n1 [Compound 200] | ≤ 30 nM | ≤ 1000 nM
C=CCn1c(=O)c2cnc(Nc3ccc(C4(C)CCN(C)CC4)cc3)nc2n1-c1ccc(=O)n(C(C)C)n1 [Compound 201] | ≤ 30 nM | ≤ 1000 nM
C=CCn1c(=O)c2cnc(Nc3ccc(C4(C)CCCNC4)cc3)nc2n1-c1ccc(=O)n(C(C)C)n1 (centres unmarked) [Compound 202] | ≤ 30 nM | ≤ 1000 nM
C=CCn1c(=O)c2cnc(Nc3ccc(C4(C)CCCN(C)C4)cc3)nc2n1-c1ccc(=O)n(C(C)C)n1 (centres unmarked) [Compound 203] | ≤ 30 nM | ≤ 1000 nM
C=CCn1c(=O)c2cnc(Nc3cccc(C4CCNCC4)c3)nc2n1-c1ccc(=O)n(C(C)C)n1 [Compound 204] | ≤ 30 nM | ≤ 1000 nM
C=CCn1c(=O)c2cnc(Nc3cccc(C4CCN(C)CC4)c3)nc2n1-c1ccc(=O)n(C(C)C)n1 [Compound 205] | ≤ 30 nM | ≤ 1000 nM
C=CCn1c(=O)c2cnc(Nc3cc(C)cc(C4CCNCC4)c3)nc2n1-c1ccc(=O)n(C(C)C)n1 [Compound 206] | ≤ 30 nM | ≤ 1000 nM
C=CCn1c(=O)c2cnc(Nc3cc(C)cc(C4CCN(C)CC4)c3)nc2n1-c1ccc(=O)n(C(C)C)n1 [Compound 207] | ≤ 30 nM | ≤ 1000 nM
C=CCn1c(=O)c2cnc(Nc3cc(F)cc(C4CCNCC4)c3)nc2n1-c1ccc(=O)n(C(C)C)n1 [Compound 208] | ≤ 30 nM | ≤ 1000 nM
C=CCn1c(=O)c2cnc(Nc3cc(F)cc(C4CCN(C)CC4)c3)nc2n1-c1ccc(=O)n(C(C)C)n1 [Compound 209] | ≤ 30 nM | ≤ 1000 nM
C=CCn1c(=O)c2cnc(Nc3cc(Cl)cc(C4CCNCC4)c3)nc2n1-c1ccc(=O)n(C(C)C)n1 [Compound 210] | ≤ 30 nM | ≤ 1000 nM
C=CCn1c(=O)c2cnc(Nc3cc(Cl)cc(C4CCN(C)CC4)c3)nc2n1-c1ccc(=O)n(C(C)C)n1 [Compound 211] | ≤ 30 nM | ≤ 1000 nM
C=CCn1c(=O)c2cnc(Nc3cc(OC)cc(C4CCNCC4)c3)nc2n1-c1ccc(=O)n(C(C)C)n1 [Compound 212] | ≤ 30 nM | ≤ 1000 nM
C=CCn1c(=O)c2cnc(Nc3cc(OC)cc(C4CCN(C)CC4)c3)nc2n1-c1ccc(=O)n(C(C)C)n1 [Compound 213] | ≤ 30 nM | ≤ 1000 nM
C=CCn1c(=O)c2cnc(Nc3ccc(CCN(C)C)cc3)nc2n1-c1ccc(=O)n(C(C)C)n1 [Compound 214] | ≤ 30 nM | ≤ 1000 nM

Structure (SMILES) | IC50 (Wee-1 kinase) | IC50 (HT29 cells)
C=CCn1c(=O)c2cnc(Nc3ccc(CCN(C)C)c(C)c3)nc2n1-c1ccc(=O)n(C(C)C)n1 [Compound 215] | ≤ 30 nM | ≤ 1000 nM
C=CCn1c(=O)c2cnc(Nc3ccc(OCCN(C)C)cc3)nc2n1-c1ccc(=O)n(C(C)C)n1 [Compound 216] | ≤ 30 nM | ≤ 1000 nM
C=CCn1c(=O)c2cnc(Nc3ccc(OCCN(C)C)c(C)c3)nc2n1-c1ccc(=O)n(C(C)C)n1 [Compound 217] | ≤ 30 nM | ≤ 1000 nM
C=CCn1c(=O)c2cnc(Nc3ccc4cc(N5CCN(C)CC5)ccc4c3)nc2n1-c1ccc(=O)n(C(C)C)n1 [Compound 218] | ≤ 30 nM | ≤ 1000 nM
C=CCn1c(=O)c2cnc(Nc3ccc4cc(N5CCN(C)CC5)cnc4c3)nc2n1-c1ccc(=O)n(C(C)C)n1 [Compound 219] | ≤ 30 nM | ≤ 1000 nM
C=CCn1c(=O)c2cnc(Nc3ccc4c(c3)CC(N(C)C)C4)nc2n1-c1ccc(=O)n(C(C)C)n1 (centres unmarked) [Compound 220] | ≤ 30 nM | ≤ 1000 nM
C=CCn1c(=O)c2cnc(Nc3ccc4c(c3)CNC4)nc2n1-c1ccc(=O)n(C(C)C)n1 [Compound 221] | ≤ 30 nM | 1000 to 3000 nM
C=CCn1c(=O)c2cnc(Nc3ccc4c(c3)CN(C)C4)nc2n1-c1ccc(=O)n(C(C)C)n1 [Compound 222] | ≤ 30 nM | ≤ 1000 nM
C=CCn1c(=O)c2cnc(Nc3ccc4c(c3)CNC4(C)C)nc2n1-c1ccc(=O)n(C(C)C)n1 [Compound 223] | ≤ 30 nM | ≤ 1000 nM
C=CCn1c(=O)c2cnc(Nc3ccc4c(c3)CN(C)C4(C)C)nc2n1-c1ccc(=O)n(C(C)C)n1 [Compound 224] | ≤ 30 nM | ≤ 1000 nM
C=CCn1c(=O)c2cnc(Nc3ccc4c(c3)CNCC4)nc2n1-c1ccc(=O)n(C(C)C)n1 [Compound 225] | ≤ 30 nM | ≤ 1000 nM
C=CCn1c(=O)c2cnc(Nc3ccc4c(c3)CN(C)CC4)nc2n1-c1ccc(=O)n(C(C)C)n1 [Compound 226] | ≤ 30 nM | ≤ 1000 nM
C=CCn1c(=O)c2cnc(Nc3ccc4c(c3)CN(C(C)C)CC4)nc2n1-c1ccc(=O)n(C(C)C)n1 [Compound 227] | ≤ 30 nM | ≤ 1000 nM
C=CCn1c(=O)c2cnc(Nc3ccc4c(c3)CCNC4)nc2n1-c1ccc(=O)n(C(C)C)n1 [Compound 228] | ≤ 30 nM | ≤ 1000 nM
C=CCn1c(=O)c2cnc(Nc3ccc4c(c3)CCN(C)C4)nc2n1-c1ccc(=O)n(C(C)C)n1 [Compound 229] | ≤ 30 nM | ≤ 1000 nM
C=CCn1c(=O)c2cnc(Nc3ccc4c(c3)CCN(C(C)C)C4)nc2n1-c1ccc(=O)n(C(C)C)n1 [Compound 230] | ≤ 30 nM | ≤ 1000 nM
C=CCn1c(=O)c2cnc(Nc3ccc4c(c3)CNCC43CC3)nc2n1-c1ccc(=O)n(C(C)C)n1 [Compound 231] | ≤ 30 nM | ≤ 1000 nM
C=CCn1c(=O)c2cnc(Nc3ccc4c(c3)CN(C)CC43CC3)nc2n1-c1ccc(=O)n(C(C)C)n1 [Compound 232] | ≤ 30 nM | ≤ 1000 nM
C=CCn1c(=O)c2cnc(Nc3ccc4c(c3)CN(C(C)C)CC43CC3)nc2n1-c1ccc(=O)n(C(C)C)n1 [Compound 233] | ≤ 30 nM | ≤ 1000 nM
C=CCn1c(=O)c2cnc(Nc3ccc4c(c3)C3(CC3)CNC4)nc2n1-c1ccc(=O)n(C(C)C)n1 [Compound 234] | ≤ 30 nM | ≤ 1000 nM
C=CCn1c(=O)c2cnc(Nc3ccc4c(c3)C3(CC3)CN(C)C4)nc2n1-c1ccc(=O)n(C(C)C)n1 [Compound 235] | ≤ 30 nM | ≤ 1000 nM
